Assay: gradient 5% acetonitrile 3 min, to 50% in 2 min, to 85% in 15 min, held 3 min, 100 µL/min
Conditions: column: Zorbax Extend-C18 2.1 x 50 mm; eluents: water / acetonitrile, 0.1% formic acid
Procedure, shortened: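 In both positive and negative ionization mode, a quadrupole time-of-flight mass spectrometer coupled to HPLC analyzed pure standards run in mixtures of ~100 molecules. The Zorbax Extend-C18 column (2.1 × 50 mm, 1.8 μm) was operated at 100 μL/min with water and acetonitrile, each containing 0.1% formic acid. The dead volume was 40 μL and the dwell volume 900 μL. Retention time came from adduct peaks that were computationally picked and individually inspected by hand.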

RP-LC retention time [s]	SMILES
661	Cc1noc(/C=C\c2ccc(S(=O)(=O)N3CCN(c4ccccn4)CC3)cc2)c1NC(=O)C1CC1
655	Cn1nc(CN2CCCC2)c2c1CCN(S(=O)(=O)c1ccccc1C(F)(F)F)C2
920	Cc1cc(N2CCC(NC(=O)Nc3ccc(Cl)cc3)C2=O)ccc1F (stereo not drawn)
591	Cn1c(N2CCCC(C(=O)NCCN3CCN(c4ccccc4F)CC3)C2)cc(=O)n(C)c1=O (stereo not drawn)
1030	CC(C)Cn1cc(CCNS(=O)(=O)c2cccc(C(F)(F)F)c2)c2cccnc21
828	O=C(O)c1ccc(Nc2nc(-c3ccc(Cl)cc3Cl)nc3ccccc23)cc1
809	Cc1ccc(CNC(=O)C2(C)Cn3nc(C)cc3C(=O)N2c2ccc3c(c2)OCCO3)cc1 (stereo not drawn)
688	Cc1nc(-c2cccc(NC(=O)c3coc(NC(=O)c4ccco4)n3)c2)cs1
778	CCOC(=O)c1c(C)oc2nc(C)nc(NCCCN3CCN(c4cccc(C)c4)C(C)C3)c12 (stereo not drawn)
805	COC(=O)c1c(C)[nH]c(C(=O)N2CCC(CC(=O)NC(c3cccs3)C(C)C)CC2)c1C (stereo not drawn)
609	COc1ccc(-c2nc3cnccn3c2Nc2ccc(C(=O)N3CCOCC3)cc2)cc1OC
858	CCOc1cc(C(=O)NC2CCN(c3cc(-c4ccc(F)cc4)[nH]n3)C2)cc(OCC)c1OCC (stereo not drawn)
1060	O=C(CN1CCCCC1c1nc(-c2cccs2)no1)NCc1ccc(Cl)cc1 (stereo not drawn)
719	N#Cc1ccccc1NC(=O)COc1ccc(Cl)cc1Cl
770	Fc1ccc(Cc2nc(-c3ccc4nncn4c3)no2)cc1
570	CCCNC(=O)Cc1cn2cc(Br)ccc2n1
784	CC(C)c1ccc(NC(=O)Cn2ncc3c(c2=O)N(C2CC2)C(=O)CS3)cc1
539	COC[C@@H]1CN(C(=O)c2ccoc2C)C[C@H]1c1nc(C)no1
748	CC(C)NC(=O)N1CCc2c(c(-c3nc(Cc4ccccc4)no3)nn2C)C1
829	O=C(Cn1c(=O)nc(N2CCCCC2)c2ccccc21)Nc1cc(F)cc(F)c1
784	c1ccc(CN2CCC3(CCc4ccccc43)CC2)cc1
725	Cc1noc(-c2nn(C)c3c2CN(C(=O)c2ccccc2Br)CC3)n1

RP-LC retention time [s]	SMILES
878	CCSc1ccccc1C(=O)Nc1ccc(-c2nc(C)no2)cc1
699	CCOc1ccc(S(=O)(=O)N2CCC(C(=O)NCCO)CC2)cc1C
714	CC(C)c1nnc2n1CCN(C(=O)CCC1CCCC1)C2
963	CC(C)(C)c1cccc(Nc2nc3ccncc3n(Cc3ccccc3)c2=O)c1
738	O=C(Nc1cccc(-c2ccc(N3CCOCC3)nn2)c1)Nc1cc(F)ccc1F
620	CC(C)CC(=O)Nc1ccc2c(c1)nc(CN1CCN(C(=O)c3ccco3)CC1)n2C
838	Cc1cccc(C)c1NC(=O)NC1CCN(c2nc3ccccc3n(C)c2=O)CC1
818	CN(C1CCc2nn(CC3CC3)c(=O)n2CC1)S(=O)(=O)c1cccc(Cl)c1 (stereo not drawn)
638	COCCN1C(=O)[C@H]2CN(Cc3ccc(Cl)c(F)c3)C[C@H]2C1=O
604	COc1ccc(Cl)cc1NC(=O)N1CCc2nc[nH]c2C1
1040	CCCS(=O)(=O)N1CCC2(CC1)C(OC)CN2c1cccc(F)c1 (stereo not drawn)
941	CC(NC(=O)Nc1ccc(Br)cc1)C(=O)N1CCc2ccccc21 (stereo not drawn)
885	CC1CN(c2ccc(Cl)cc2)c2nc3c(c(=O)n(C)c(=O)n3C)n2C1 (stereo not drawn)
692	CSc1ccc(CNC(=O)CCc2c(-c3ccc(F)cc3)nc3ccccn23)cc1
670	CC(C)Cn1c(=O)c(-c2ccc(C(=O)N3CCN(C)CC3)cc2)nc2ccccc21
776	Cc1nn(C)c(=O)c2cc(S(=O)(=O)NCc3ccccc3)cn12
586	Cc1nnc(N2CCCC(C(=O)NCCCN3CCCCCC3)C2)c2nn(-c3ccccc3)c(C)c12 (stereo not drawn)
806	O=C(Nc1ccccc1NC(=O)c1ccc(Br)o1)c1ccsc1
724	COCc1nnc(NC(=O)C2CC(=O)N(CCc3c[nH]c4ccc(Cl)cc34)C2)s1 (stereo not drawn)
756	COc1ccc(-n2nc(SCC(=O)Nc3cc(F)ccc3F)ccc2=O)cc1
645	COc1ccc2c(C)c(CCC(=O)N3CCC(C(N)=O)CC3)c(=O)oc2c1
727	Ic1ccc(N2CCN(Cc3c[nH]c4ncccc34)CC2)cc1

RP-LC retention time [s]	SMILES
877	O=C(NCCCc1ccccc1)c1ccc2c(c1)CCN2C(=O)C1CC1
681	COc1ccc(-c2cc3nn(CC(=O)Nc4cccc(OC)c4)c(=O)n3c(C)n2)cc1
766	COc1ccc(CN2CN=C(Nc3nc(C)c4cc(C)ccc4n3)NC2)cc1
675	Cc1csc(-c2cc(S(=O)(=O)NCCCN3CCC(C)CC3)c(C)s2)n1
620	CCOC(=O)C1CCN(C(=O)Cn2c(N3CCOCC3)nc(C)cc2=O)CC1
627	c1ccc(N2CCN(Cc3cccn3-c3nnc(N4CCCCC4)s3)CC2)nc1
955	Cc1cc(C)cc(N2CCC(NC(=O)Nc3cc(C)ccc3C)C2=O)c1 (stereo not drawn)
644	Cc1nn(-c2ccc(-c3ccccc3)nn2)c(C)c1S(=O)(=O)N1CCN(C)CC1
1220	O=C(COc1ccc(Cl)cc1)Nc1nc(-c2cccc3ccccc23)cs1
629	Cc1ccc(CN(C)Cc2cc(=O)n3cc(Cl)ccc3n2)cc1
950	CC1CCCCC1Nc1nc(-c2ccc([N+](=O)[O-])cc2)nc2ccccc12 (stereo not drawn)
912	CCc1ccccc1NC(=O)C1CCN(S(C)(=O)=O)c2ccccc2O1 (stereo not drawn)
829	CCn1c(N2CCCC(C(=O)Nc3cc(OC)cc(OC)c3)C2)cc(=O)n(C)c1=O (stereo not drawn)
750	O=C(C1CC(=O)N(c2ccc3c(c2)CCN3C(=O)C2CC2)C1)N1CCCCCC1 (stereo not drawn)
688	CC(C)N1C(=O)CSc2cnn(CC(=O)NC3CCCC3)c(=O)c21
906	O=C(Cn1cccc1-c1nc(-c2ccc3c(c2)OCO3)no1)NCc1ccco1
738	Cc1nc(-c2ccc(N3CCN(C(=O)c4ccoc4)CC3)nc2)sc1C
662	Cn1nc(C(=O)N2CCCC(C(=O)N3CCCC3)C2)c2c1CCN(C(=O)c1ccccc1Cl)C2 (stereo not drawn)
739	O=C(Nc1c(-c2ccc(F)cc2)nc2ccccn12)c1ccc(Cl)cc1Cl
905	CC(=O)N1c2ccc(S(=O)(=O)N3CCCCC3)cc2CC1C(=O)NC1CCCCC1 (stereo not drawn)
1310	COc1ccc(OC)c(C2CCN(C(=O)c3nc(-c4oc5c(C)cccc5c4C)no3)C2)c1 (stereo not drawn)
1050	CCn1c(C(=O)N2CCN(c3cccc(OC)c3)CC2)cc2sccc21

RP-LC retention time [s]	SMILES
705	CCOC(=O)c1noc2ncnc(NCC3CCN(Cc4cccc(F)c4)CC3)c12
732	COC(=O)c1cccc(NC(=O)NCCn2nnc3cc(S(=O)(=O)N(C)C)ccc32)c1
583	COCCN1C(=O)[C@H]2CN(Cc3cccc4[nH]ccc34)C[C@H]2C1=O
978	COc1cccc(NC(=O)c2csc(-c3cn(C)c4ncccc34)n2)c1
809	CCOc1ccc(NC(=O)Cn2nc(N3CCCC3)c3ccccc3c2=O)cc1
728	O=C(NCC1CCCO1)C1c2ccccc2C(=O)N1Cc1ccc2c(c1)OCO2 (stereo not drawn)
745	CCc1ccc(S(=O)(=O)Nc2cc(-c3cn4ccc(C)cc4n3)ccc2C)cc1
1000	Cc1c(Cl)cccc1-n1ccnc(NC(=O)Nc2ccc(F)cc2)c1=O
627	COc1ccc(NC(=O)C2CCN(c3cc(N4CCSCC4)ncn3)CC2)cc1OC
1200	Cc1cccc(-c2noc(Cn3ncn4nc(-c5ccccc5Cl)cc4c3=O)n2)c1
660	CCN(CC)CCNc1ncnc2onc(-c3cccc(Cl)c3)c12
745	CSc1ccc(-c2nc3cnccn3c2Nc2ccc(C(=O)NC(C)C)cc2)cc1
1330	Cc1ccc(-c2noc(-c3ccccc3S(=O)(=O)NCCC(C)C)n2)cc1
995	CC(C)n1cc(C2=CCN(S(=O)(=O)c3cccc(C#N)c3)CC2)c2cccnc21
837	COc1ccc(-c2c(C)noc2NC(C)=O)cc1S(=O)(=O)Nc1ccc(C)cc1Cl
996	CCN(CC)S(=O)(=O)c1ccc(NC(=O)N2CCCC(C(=O)Nc3cccc(Cl)c3)C2)s1 (stereo not drawn)
692	COCCCNc1c(C(=O)OC)c(=O)[nH]c2c(Cl)cccc12
624	Cc1nnc(NC(=O)C2CCN(C(=O)c3ccc(F)cc3)CC2)s1
695	CCNc1nc(C)cc(N2CCN(C(=O)Nc3cccc(Cl)c3)CC2)n1
996	Cc1c(Cl)cccc1NC(=O)N1CCc2nc(-c3ccc(F)cc3)ncc2C1
1160	Cc1ccc(C)c(NC(=O)CSc2cc(N3CCN(c4ccccc4F)CC3)ncn2)c1
836	COc1ccc(C(=O)Nc2cc(C(=O)O)ccc2N2CCN(c3ncccn3)CC2)cc1
